Results from US9085554B2, “Method of evaluating pharmaceutical preparation containing luliconazole and index substance” (POLA PHARMA INC., priority 2013, dated 2015).

Tests used:
fungi = test: Antifungal activity of the amide form
[1] = Severe test / accelerated test of luliconazole as the active ingredient; format: physicochemical
Description: Further, it is considered that this amide form is produced by the addition of water with respect to a cyano group of the luliconazole. […] Namely, the presence of the amide form is speculated; however, the substance thereof has not been understood. Accordingly, it is difficult to speculate in the stage of manufacturing the pharmaceutical preparation that such a compound may be produced under a storage condition depending on the type of the solvent.
The severe condition herein refers to a storage condition at 60° C. for 3 weeks, and the accelerated condition herein refers to a storage condition at 40° C. for 6 months. The stability of a pharmaceutical preparation containing luliconazole has shown very good consistency between the severe condition and the accelerated condition. Accordingly, either of the conditions can be used. Further, the storage at 40° C. for 6 months is known as a condition substitutable for the condition at a room temperature for 3 years in an application for manufacturing approval of a pharmaceutical.
It is known that water is usually readily added to a cyano group by an acid or a base and the amide form is thereby produced. However, this generality is not applicable in the case of luliconazole, for the following reason. […]

NC(=O)/C(=C1/SC[C@@H](c2ccc(Cl)cc2Cl)S1)n1ccnc1 [amide form, [R-(E)]-α-[4-(2,4-dichlorophenyl)-1,3-dithiolan-2-ylidene]-1H-imidazole-1-acetamide]
Antifungal activity (fungi): low

N#C/C(=C1/SC[C@@H](c2ccc(Cl)cc2Cl)S1)n1ccnc1 [luliconazole, Luliconazole]
Production of SE form and Z form ([1]; accelerated test and/or severe test): relatively readily produced | Production of amide form from luliconazole active ingredient ([1]; severe test (60° C., 3 weeks) or accelerated test (40° C., 6 months) of the active ingredient): hardly produced
